Measurements from patent US4714619A, “Aminomalonyl alanine compounds as dietary sweeteners” (priority 1986, dated 1987).
Structures can show the parent of a compound that is named as a salt. Where two headings read alike, the source gives them in different places. Where a SMILES comes first, the peptide text is derived from it.

Columns and labels:
[1] = Comparative taste test, D- versus L-configuration (Table 2, FIG. 3); parameters: Sweet? (average score) / Bitter? (average score) / Salty? (average score) / Off Taste? (average score) / After Taste? (average score): scale not given here
Protocol: The compounds were dissolved in distilled water at the concentrations specified in Table 2. Solutions were made up and kept overnight in a refrigerator. The following day, they were poured into individual graduated plastic cups (10 ml per cup) and allowed to warm to room temperature. A taste panel was convened and testing begun that same day. Tasting and evaluation was done by the standard protocol developed by Dr. Robert Gesteland of Taste and Smell Consulting Group, Inc.
The first solution tasted (reference standard for the panel) was 0.25M sucrose. Other solutions were tasted in radomized fashion. The random order was arrived at as follows:
i. An ordered list of the compounds and concentrations was prepared (26 solutions in all).
ii. 0.25M sucrose was designated as 1.
iii. A standard table of random numbers was used in which the numbers were grouped as two-digit numbers. A point in the table was chosen at random (blind pointing). The first solution in the list was given the first random number in the sequence (read right-to-left, up-to-down) which is between 2 and 26. The second solution in the list was given the next random number in the sequence between 2 and 26, etc. Repeat numbers were ignored.
iv. Solutions were then labeled A (for number 1) B (for random number 2), C-Z.
v. Panelists were instructed to taste the solutions in alphabetical order.
With the assistance of Taste and Smell Consulting Group, Inc., taste panel members were trained adn tested for their ability to discriminate sucrose solutions of varying concentrations. In summary it may be stated that all 9 panel members had acceptble correlation scores. Their results were in good agreement with those which have been previously reported in siilar types of studies. For the test series the correlations for each panelist for sucrose and aspartame were acceptable as were the overall results obtained by averaging individual scores. The results of the taste panel are set forth in Table 2 wherein the parenthetical figures represent the standard error values for the number above.

[2] = Taste panel (Table 1, FIG. 2); settings: for After Taste? (average score) / Bitter? (average score) / Off Taste? (average score) / Pleasant? (average score) / Salty? (average score) / Sweet? (average score): normalized to 100
[3] = Stability in aqueous solution (hplc, ambient temperature); assay type: physicochemical; settings: 0.05m phosphate buffer, ambient temperature, read-out: degradation
Protocol: Stability was examined in aqueous solution at various pHs. Solutions (1% w/v) were prepared in 0.05M phosphate buffer adjusted to pH 7.4 and pH 3.5. Storage at ambient temperature over 36 days was monitored by hplc analysis (waters radial-pak reverse phase C-8 column, 25% CH3 CN, 0.05% TFA/H2 O eluant, 210 nm U.V. detection). Aspartame was examined similarly for comparison purposes.

## CC(C)OC(=O)[C@H](C)NC(=O)C(N)C(=O)O (mixture of isomers) [Compound (20), DL-Aminomalonyl-L-alanine Isopropyl Ester]
[1]
  sweet taste (words): not sweet
[1]; 0.0431 Millimolar
  After Taste? (average score): 0
  Bitter? (average score): 9
  Off Taste? (average score): 5
  Pleasant? (average score): 14
  Salty? (average score): 3
  Sweet? (average score): 3
[1]; 0.4307 Millimolar
  After Taste? (average score): 8
  Bitter? (average score): 14
  Off Taste? (average score): 8
  Pleasant? (average score): 5
  Salty? (average score): 16
  Sweet? (average score): 8
[1]; 4.3066 Millimolar
  After Taste? (average score): 5
  Bitter? (average score): 0
  Off Taste? (average score): 5
  Pleasant? (average score): 19
  Salty? (average score): 0
  Sweet? (average score): 5
[1]; listed as 20
  sweet taste (words): non-sweet

## C[C@@H](NC(=O)C(N)C(=O)O)C(=O)OC12CC3CC(CC(C3)C1)C2 (mixture of isomers) [(22), DL-Aminomalonyl-D-alanine 1-Adamantyl Ester Citrate]
[1]
  sweet taste (words): sweet

## C[C@@H](NC(=O)C(N)C(=O)O)C(=O)OC1C2(C)CCC(C2)C1(C)C (mixture of isomers) [Compound (21), DL-Aminomalonyl-D-alanine Fenchyl Ester]
[1]
  sweet taste (words): sweet
[1]; 0.0306 Millimolar
  After Taste? (average score): 12
  Bitter? (average score): 3
  Off Taste? (average score): 13
  Pleasant? (average score): -9
  Salty? (average score): 4
  Sweet? (average score): 1
[1]; 0.3064 Millimolar
  After Taste? (average score): 50
  Bitter? (average score): 29
  Off Taste? (average score): 56
  Pleasant? (average score): -57
  Salty? (average score): 9
  Sweet? (average score): 8
[1]; 3.0637 Millimolar
  After Taste? (average score): 79
  Bitter? (average score): 90
  Off Taste? (average score): 99
  Pleasant? (average score): -83
  Salty? (average score): 62
  Sweet? (average score): 13

## CC(NC(=O)C(N)C(=O)O)C(=O)OC1CCCCC1C (mixture of isomers) [(23), DL-Aminomalonyl-D-alanine trans-2-Methylcyclohexyl Ester Citrate]
[1]
  sweet taste (words): sweet

## OC[C@H]1O[C@@](CO)(O[C@H]2O[C@H](CO)[C@@H](O)[C@H](O)[C@H]2O)[C@@H](O)[C@@H]1O [Sucrose]
[1]; 62.0000 Millimolar
  After Taste? (average score): 10
  Bitter? (average score): 6
  Off Taste? (average score): 9
  Pleasant? (average score): 17
  Salty? (average score): 9
  Sweet? (average score): 3
[1]; 125.0000 Millimolar
  After Taste? (average score): 4
  Bitter? (average score): 2
  Off Taste? (average score): 3
  Pleasant? (average score): 21
  Salty? (average score): 1
  Sweet? (average score): 30
[1]; 250.0000 Millimolar
  After Taste? (average score): 15
  Bitter? (average score): 3
  Off Taste? (average score): 12
  Pleasant? (average score): 34
  Salty? (average score): 7
  Sweet? (average score): 52
[1]; 500.0000 Millimolar
  After Taste? (average score): 9
  Bitter? (average score): 0
  Off Taste? (average score): 10
  Pleasant? (average score): 35
  Salty? (average score): 0
  Sweet? (average score): 78
[1]; 1000.0000 Millimolar
  After Taste? (average score): 8
  Bitter? (average score): 0
  Off Taste? (average score): 12
  Pleasant? (average score): 28
  Salty? (average score): 0
  Sweet? (average score): 95
[2]; 62.0000 Millimolar
  After Taste? (average score): 0
  Bitter? (average score): 3
  Off Taste? (average score): 4
  Pleasant? (average score): -4
  Salty? (average score): 0
  Sweet? (average score): 13
[2]; 125.0000 Millimolar
  After Taste? (average score): 5
  Bitter? (average score): 2
  Off Taste? (average score): 4
  Pleasant? (average score): 18
  Salty? (average score): 8
  Sweet? (average score): 30
[2]; 250.0000 Millimolar
  After Taste? (average score): 0
  Bitter? (average score): 0
  Off Taste? (average score): 0
  Pleasant? (average score): 49
  Sweet? (average score): 64
[2]; 500.0000 Millimolar
  After Taste? (average score): 7
  Bitter? (average score): 6
  Off Taste? (average score): 5
  Pleasant? (average score): 32
  Salty? (average score): 12
  Sweet? (average score): 75
[2]; 1000.0000 Millimolar
  After Taste? (average score): 30
  Bitter? (average score): 0
  Off Taste? (average score): 0
  Pleasant? (average score): 26
  Salty? (average score): 1
  Sweet? (average score): 97

## COC(=O)[C@H](Cc1ccccc1)NC(=O)[C@@H](N)CC(=O)O [Aspartame, methyl ester of L-α-Aspartyl-L-phenylalanine] (HELM PEPTIDE1{D.F.[CO[*:1]]}$$$$V2.0)
[1]; 0.3398 Millimolar
  After Taste? (average score): 1
  Bitter? (average score): 1
  Off Taste? (average score): 1
  Pleasant? (average score): 16
  Salty? (average score): 0
  Sweet? (average score): 9
[1]; 1.0194 Millimolar
  After Taste? (average score): 7
  Bitter? (average score): 3
  Off Taste? (average score): 6
  Pleasant? (average score): 8
  Salty? (average score): 10
  Sweet? (average score): 27
[1]; 3.3979 Millimolar
  After Taste? (average score): 16
  Bitter? (average score): 2
  Off Taste? (average score): 12
  Pleasant? (average score): 22
  Salty? (average score): 3
  Sweet? (average score): 66
[1]; 10.1937 Millimolar
  After Taste? (average score): 22
  Bitter? (average score): 5
  Off Taste? (average score): 17
  Pleasant? (average score): 12
  Salty? (average score): 0
  Sweet? (average score): 64
[3]; pH 3.5, 36 days
  degraded at 864 h: > 50%
[3]; pH 7.4 buffer, 9 days
  degraded at 216 h: 100%
[2]; 0.3392 Millimolar
  After Taste? (average score): 1
  Bitter? (average score): 0
  Off Taste? (average score): 1
  Pleasant? (average score): 4
  Salty? (average score): 1
  Sweet? (average score): 15
[2]; 1.0194 Millimolar
  After Taste? (average score): 2
  Bitter? (average score): 0
  Off Taste? (average score): 4
  Pleasant? (average score): 15
  Salty? (average score): 3
  Sweet? (average score): 27
[2]; 3.3979 Millimolar
  After Taste? (average score): 26
  Bitter? (average score): 4
  Off Taste? (average score): 2
  Pleasant? (average score): 26
  Salty? (average score): 2
  Sweet? (average score): 68
[2]; 10.1937 Millimolar
  After Taste? (average score): 34
  Bitter? (average score): 0
  Off Taste? (average score): 4
  Pleasant? (average score): 9
  Salty? (average score): 1
  Sweet? (average score): 83
[2]; sucrose=1.0, weight scale
  sweetness potency (reciprocal of concentration required for a score of 50): 126
[2]; taste panel
  taste quality: sweet and pleasant
